Measured values taken from US7250409B2, “Ningalin B analogs employable for reversing multidrug resistance” (The Scripps Research Institute, priority 2000, dated 2007).
Entries after “also recorded” stand apart in the source; their conditions may differ.

Tests used:
HCT116 = experiment: Cytotoxic activity against wild-type HCT116; format: cell-based, human
Protocol: (§1) Cytotoxic Activity and Reversal of Multidrug Resistance. […] (Quesada, A. R.; et al. Br. J. Cancer 1996, 74, 677.) With exception of ningalin A, (Ningalin A, lamellarin O, lukianol A, and permethyl storniamide A: Boger, D. L.; et al. J. Am. Chem. Soc. 1999, 121, 54.) the biological evaluation of the ningalin family has not been explored. Consequently, ningalin B and a number of structurally related synthetic intermediates were tested in a L1210 cytotoxic assay, and the results are summarized in FIGS. 6 and 10. […] (Ningalin A, lamellarin O, lukianol A, and permethyl storniamide A: Boger, D. L.; et al. J. Am. Chem. Soc. 1999, 121, 54.)
(Quesada, A. R.; et al. Br. J. Cancer 1996, 74, 677.) P-gp is a 170 kDa plasma membrane glycoprotein encoded in humans by the MDR1 gene which exports drugs out of mammalian cells, lowering their intracellular concentration. (Patel, N. H.; et al. Invest. New Drugs 1994, 12, 1. Gottesman, M. M.; et al. Annu. Rev. Biochem. 1993, 62, 385.) Therefore, 7-14 were also tested against a wild-type human colon cancer cell line (HCT116) and two resistant HCT116 cell lines. The first resistant cell line (HCT116/VM46) embodies the MDR phenotype and overexpresses P-glycoprotein while the second cell line (HCT116/VP35) derives its resistance through underexpression of topoisomerase II. The examination of the latter cell line along with the wild-type HCT116 and their comparison with HCT116VM46 allows an accurate assessment of the MDR sensitivity as well as an assessment of one potential therapeutic target.

HCT116/VM46 = experiment: Reversal of multidrug resistance: resensitizing HCT116/VM46 to vinblastine and doxorubicin; format: cell-based, human; settings: for resensitization of HCT116/VM46 compared with verapamil: vinblastine and doxorubicin
L1210 = L1210 cytotoxic assay; format: cell-based
Excerpt: FIG. 6 illustrates a table with a comparison of the cytotoxic activity of ningalin B and some analogs with some commonly used compounds against three different cell lines.
as §1

Pgp-170 = target: T1, Pgp-170 (Homo sapiens, UniProt P08183); experiment: Inhibition of dye efflux (rhodamine 123) from HCT116/VM46; format: cell-based; settings: 30 min incubation in rhodamine 123 in phosphate buffer solution
T1 construct: The first resistant cell line (HCT116/VM46) embodies the MDR phenotype and overexpresses P-glycoprotein; endogenous in cells; host or cells: HCT116/VM46 (drug-resistant human colon cancer cell line)
Protocol: FIG. 8 illustrates the inhibition of dye efflux (rhodamine 123) from the HCT116/VM46 cell line. Accumulation of rhodamine 123 in the HCT116/VM46 cell line after 30 min incubation in […] rhodamine in phosphate buffer solution (Quesada, A. R.; et al., Br. J. Cancer 1996, 74, 677).
Fundamentally more important, many of the agents were found capable of reversing MDR at noncytotoxic concentrations, resensitizing HCT116/VM46 to vinblastine and doxorubicin (FIGS. 7 and 11).

[1] = cytotoxic activity relative to ningalin B

T1 sequence (P08183 whole entry): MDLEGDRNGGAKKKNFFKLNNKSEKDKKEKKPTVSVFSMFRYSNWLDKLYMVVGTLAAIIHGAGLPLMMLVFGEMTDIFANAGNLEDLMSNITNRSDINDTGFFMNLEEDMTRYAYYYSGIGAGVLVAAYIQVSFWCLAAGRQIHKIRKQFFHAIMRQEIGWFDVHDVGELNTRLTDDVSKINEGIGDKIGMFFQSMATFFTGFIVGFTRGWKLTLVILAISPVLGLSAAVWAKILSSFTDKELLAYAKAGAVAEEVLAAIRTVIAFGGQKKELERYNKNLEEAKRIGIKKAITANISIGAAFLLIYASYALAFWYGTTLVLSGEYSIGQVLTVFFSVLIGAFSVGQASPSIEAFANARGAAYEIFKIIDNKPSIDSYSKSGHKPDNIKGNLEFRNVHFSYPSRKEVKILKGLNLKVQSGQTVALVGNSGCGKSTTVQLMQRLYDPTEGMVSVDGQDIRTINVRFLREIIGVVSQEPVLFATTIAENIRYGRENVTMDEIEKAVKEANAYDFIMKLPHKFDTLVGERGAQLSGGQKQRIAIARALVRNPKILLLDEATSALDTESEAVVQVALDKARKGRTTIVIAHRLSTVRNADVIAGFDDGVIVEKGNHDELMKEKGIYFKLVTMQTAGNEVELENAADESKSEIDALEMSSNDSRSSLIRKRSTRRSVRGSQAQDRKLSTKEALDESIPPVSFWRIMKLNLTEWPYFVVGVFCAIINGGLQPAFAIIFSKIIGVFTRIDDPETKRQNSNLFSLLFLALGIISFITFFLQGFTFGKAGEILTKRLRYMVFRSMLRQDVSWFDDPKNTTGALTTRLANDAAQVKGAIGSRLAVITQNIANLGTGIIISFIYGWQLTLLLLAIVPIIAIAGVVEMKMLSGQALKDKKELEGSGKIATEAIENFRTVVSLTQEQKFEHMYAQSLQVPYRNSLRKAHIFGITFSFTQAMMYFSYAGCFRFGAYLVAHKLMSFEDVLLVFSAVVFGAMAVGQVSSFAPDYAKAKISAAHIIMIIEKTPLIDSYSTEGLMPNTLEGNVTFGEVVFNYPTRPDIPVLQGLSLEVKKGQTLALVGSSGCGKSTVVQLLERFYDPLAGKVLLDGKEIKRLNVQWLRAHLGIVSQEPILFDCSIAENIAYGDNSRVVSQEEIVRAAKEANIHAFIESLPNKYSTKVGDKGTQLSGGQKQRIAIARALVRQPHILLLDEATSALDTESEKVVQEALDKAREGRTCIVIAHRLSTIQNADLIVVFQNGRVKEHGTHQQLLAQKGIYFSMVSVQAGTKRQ

dye efflux (rhodamine 123) from HCT116/VM46 (Pgp-170) | Structure (SMILES) | fold less active against HCT116 than ningalin B (HCT116; [1]) [fold] | MDR reversal in HCT116/VM46 (HCT116/VM46; agent at 1 μM) | ability to resensitize HCT116/VM46 to vinblastine and doxorubicin (HCT116/VM46; agent at 1 μM) | resensitization of HCT116/VM46 compared with verapamil (HCT116/VM46; agent at 1 μM) | MDR reversal in HCT116/VM46 (HCT116/VM46; agent at 7.5 μM) | MDR reversal, resensitizing HCT116/VM46 to vinblastine and doxorubicin (HCT116/VM46; concentration not given) | fold less active against L1210 than ningalin B (L1210; [1]) [fold] | inherent cytotoxic activity (cell line not given) (HCT116) | cytotoxic activity against HCT116 (HCT116; wild-type human colon cancer cell line HCT116) | cytotoxic activity against L1210 (L1210; L1210 cell line) | sensitivity of HCT116/VM46 towards vinblastine in presence of agent (HCT116/VM46; concentration not given, vinblastine)
– | COc1ccc(CCn2cc(-c3ccc(OC)c(OC)c3)c3c4cc(OC)c(OC)cc4oc(=O)c32)cc1OC [compound 13, Hexamethyl Ningalin B] | 2.5 | complete MDR reversal | able to resensitize | more effectively than verapamil | hypersensitive to vinblastine | potently reverse MDR | 5 | – | – | – | –
– | COCOc1cc(OC)c(OC)cc1-c1c(-c2ccc(OC)c(OC)c2)c(C(=O)OC)n(CCc2ccc(OC)c(OC)c2)c1C(=O)OC [compound 10, Dimethyl 3-(4,5-Dimethoxy-2-(methoxymethoxy)phenyl)-4-(3,4-dimethoxyphenyl)-1-[2-(3,4-dimethoxyphenyl)ethyl]pyrrole-2,5-dicarboxylate] | – | – | able to resensitize | more effectively than verapamil | complete MDR reversal | potently reverse MDR | – | lacking inherent cytotoxic activity | – | – | –
– | COc1ccc(CCn2c(C(=O)N(C)C)c(-c3ccc(OC)c(OC)c3)c3c4cc(OC)c(OC)cc4oc(=O)c32)cc1OC [compound 15, N,N-Dimethyl 7,8-Dimethoxy-3-(2-(3,4-dimethoxyphenyl)ethyl)-1-(3,4-dimethoxyphenyl)-[1]-benzopyrano[3,4-b]pyrrol-4(3H)-one-2-carboxamide] | – | – | – | – | – | potently reverse MDR | – | lacking inherent cytotoxic activity | – | – | –
– | O=c1oc2cc(O)c(O)cc2c2c(-c3ccc(O)c(O)c3)cn(CCc3ccc(O)c(O)c3)c12 [ningalin B, Ningalin B] | – | – | – | – | – | not | – | – | only moderately active | only moderately active | –
– | COc1ccc(CCN(C)CCCC(C#N)(c2ccc(OC)c(OC)c2)C(C)C)cc1OC (stereo not drawn) [verapamil, reference compound] | – | – | – | – | complete reversal | – | – | – | – | – | –
inhibited dye efflux | COc1ccc(-c2c3n(c4c(=O)oc5cc(OC)c(OC)cc5c24)CCc2cc(OC)c(OC)cc2C3=O)cc1OC [compound 14, 9,10-Dihydro-12,13-dimethoxy-1-(3′,4′-dimethoxyphenyl)-3,4-dimethoxy-[4,3-d]-[1]-benzopyrano-15H-benzazepino[3,2-a]-[3]-pyrrol-7,15(18H)-dione] | – | hypersensitivity of HCT116/VM46 to vinblastine | able to resensitize | more effectively than verapamil | – | potently reverse MDR; also recorded: most potent MDR reversal agent identified in this series | – | lacking inherent cytotoxic activity | – | – | hypersensitivity towards vinblastine
– | COC(=O)c1c(-c2ccc(OC)c(OC)c2)c2c3cc(OC)c(OC)cc3oc(=O)c2n1CCc1ccc(OC)c(OC)c1 [compound 11, Methyl 7,8-Dimethoxy-3-(2-(3,4-dimethoxyphenyl)ethyl)-1-(3,4-dimethoxyphenyl)-[1]-benzopyrano[3,4-b]pyrrol-4(3B)-one-2-carboxylate] | – | complete MDR reversal | able to resensitize | more effectively than verapamil | hypersensitive to vinblastine | potently reverse MDR | – | – | – | – | –
